Test results: US9422240B2, “Partially saturated nitrogen-containing heterocyclic compound” (TAISHO PHARMACEUTICAL CO., LTD, priority 2012, dated 2016)

What was measured:
human PHD2 [1] = target: T1, human PHD2 (Homo sapiens (Human), UniProt Q9GZT9); assay: Test 1: human PHD2 inhibitory activity, [14C]-2-oxoglutarate to [14C]-succinic acid radiometric assay with HIF-1α peptide; assay type: biochemical; details: test compound's concentration 1 μM; Test 1, [14C]-2-oxoglutarate radiometric assay; read-out: Percent inhibition (% at 1 μM)
Procedure: (1) Expression and Preparation of Human PHD2
Human PHD2 was expressed in insect cells (HighFive cells). A registered sequence of human PHD2 (NM_022051) was introduced into the pFastBacl vector (Invitrogen), and the sequence was verified. The vector was introduced into Sf9 insect cells (Invitrogen) to acquire human PHD2 baculovirus. HighFive insect cells (Invitrogen) were infected with this recombinant virus and cultured at 27° C. for 72 hours; thereafter, a cell lysis solution containing various protease inhibitors was added and the cells were disrupted to form a suspension. The suspension of disrupted cells was centrifuged at 4° C. and 100,000×g for 30 minutes and the supernatant was recovered as a cell lysate.
(2) Measurement of Human PHD2 Inhibitory Activity
The activity of human PHD2 enzyme was measured with a substrate which is a 19-residue partial peptide based on the sequence of HIF-1α. Specifically, the conversion of 2-oxoglutarate to succinic acid which would occur simultaneously with the hydroxylation of a proline residue in the peptide with the PHD2 enzyme was utilized. To be more specific, [^14C]-2-oxogiutarate was added to the reaction system to initiate an enzymatic reaction and the [^14C]-2-oxoglutarate remaining after the reaction was bound to 2,4-dinitrophenylhydrazine (DNPH), with the resulting precipitate being removed by passage through a filter. Subsequently, radiation counting was conducted on the resulting [^14C]-succinic acid.
A test compound, HIF-1αpeptide and [^14C]-2-oxoglutarate were preliminarily added onto 96-well plates and reaction was initiated by adding a human PHD2 enzyme solution (4 μg/well). After 15-min incubation at 37° C., a DNPH-containing quench solution was added and the mixture was allowed to stand at room temperature for 30 minutes. Thereafter, an excess of non-radiolabelled 2-oxoglutarate was added and the mixture was allowed to stand at room temperature for 60 minutes. The resulting precipitate was removed by passage through a filter and the radiation count on the [^14C]-succinic acid was quantified (with MicroBeta). Radiation counting was conducted for each well and the human PHD2 inhibitory activity of each test compound was calculated on the basis of the values for the substrate-free group and the test compound-free group.

human PHD2 [2] = target: T1, human PHD2; assay: Test 2: human PHD2 inhibitory activity, fluorescence polarization assay of HIF-1α peptide proline hydroxylation; assay type: biochemical; details: for inhibition at 1 µM: test compound's concentration 1 μM, Test 2, fluorescence polarization assay, read-out: Percent inhibition (% at 1 μM); for IC50: human PHD2, fluorescence polarization assay, 20-min incubation at 30° C.
How it was run: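 Enzyme from lysate of cells expressing human PHD2 (NM_022051), 40 ng/well, added to compound and 19-residue HIF-1α peptide substrate; 20 min at 30° C., EDTA quench. Prolyl hydroxylation detected by HIF-OH antibody binding via fluorescence polarization; inhibition relative to compound-free wells.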

T1 sequence (Q9GZT9 whole entry): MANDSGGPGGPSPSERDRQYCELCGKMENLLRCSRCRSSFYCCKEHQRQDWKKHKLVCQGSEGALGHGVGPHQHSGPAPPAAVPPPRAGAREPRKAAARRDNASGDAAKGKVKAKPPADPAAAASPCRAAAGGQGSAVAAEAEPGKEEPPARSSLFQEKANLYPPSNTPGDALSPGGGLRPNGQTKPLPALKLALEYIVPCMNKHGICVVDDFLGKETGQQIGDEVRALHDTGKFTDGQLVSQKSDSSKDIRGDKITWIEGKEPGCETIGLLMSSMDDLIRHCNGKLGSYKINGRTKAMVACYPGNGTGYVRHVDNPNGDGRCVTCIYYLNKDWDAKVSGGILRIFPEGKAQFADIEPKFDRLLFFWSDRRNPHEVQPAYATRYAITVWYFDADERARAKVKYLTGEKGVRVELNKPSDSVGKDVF

| Compound | inhibition at 1 µM (human PHD2 [1]) | inhibition at 1 µM (human PHD2 [2]) | IC50 (human PHD2 [2]) |
| --- | --- | --- | --- |
| Cc1nc(C)c(-c2ccc(CN3CCC(O)=C(C(=O)NCC(=O)O)C3=O)cc2)s1 [Ex. 2-20] | 102% | 93% |  |
| O=C(O)CNC(=O)C1=C(O)CCN(Cc2cc(C(F)(F)F)cc(C(F)(F)F)c2)C1=O [Ex. 1-59] | 41% | 54% |  |
| Cc1ccccc1Oc1ccc(CN2CCC(O)=C(C(=O)NCC(=O)O)C2=O)cn1 [Ex. 1-275] | 85% | 94% | 99 nM |
| COc1ccc(CN2CCC(O)=C(C(=O)NCC(=O)O)C2=O)c(C)c1 [Ex. 1-62] | 65% | 68% |  |
| O=C(O)CNC(=O)C1=C(O)CCN(Cc2ccc(C(F)(F)F)c(Cl)c2)C1=O [Ex. 1-128] | 88% | 84% |  |
| CC1(C)CC(O)=C(C(=O)NCC(=O)O)C(=O)N1Cc1ccc(Br)cc1 [Ex. 1-150] | 63% | 71% |  |
| CC1(C)CC(O)=C(C(=O)NCC(=O)O)C(=O)N1Cc1ccc(OCCC2CC2)cc1 [Ex. 1-247] | 81% | 82% |  |
| O=C(O)CNC(=O)C1=C(O)CCN(Cc2ccc(OC(F)(F)F)c(Cl)c2)C1=O [Ex. 1-159] | 78% | 90% |  |
| O=C(O)CNC(=O)C1=C(O)CCN(Cc2ccc(C(F)(F)F)c(F)c2)C1=O [Ex. 1-113] | 79% | 84% |  |
| O=C(O)CNC(=O)C1=C(O)CCN(Cc2ccc(F)cc2)C1=O [Ex. 1-139] | 72% | 78% |  |
| O=C(O)CNC(=O)C1=C(O)CCN(Cc2cccc(-c3ccccc3)c2)C1=O [Ex. 1-24] | 74% | 84% |  |
| O=C(O)CNC(=O)C1=C(O)CCN(Cc2ccc(C(F)(F)F)cc2C(F)(F)F)C1=O [Ex. 1-54] | 60% | 71% |  |
| O=C(O)CNC(=O)C1=C(O)C2(CCC2)CN(Cc2ccc(-c3ccccn3)cc2)C1=O [Ex. 1-102] | 67% | 83% |  |
| CC(C)(c1ccc(C(F)(F)F)cc1)N1CCC(O)=C(C(=O)NCC(=O)O)C1=O [Ex. 1-231] | 65% | 44% |  |
| O=C(O)CNC(=O)C1=C(O)CCN(Cc2ccc(-c3ccc(Cl)c(Cl)c3)cc2)C1=O [Ex. 2-23] | 88% | 96% |  |
| CC1(C)CC(O)=C(C(=O)NCC(=O)O)C(=O)N1Cc1ccc(OCC2CC2)cc1 [Ex. 1-198] | 70% | 79% |  |
| CC1CN(Cc2ccc(-c3ccccn3)cc2)C(=O)C(C(=O)NCC(=O)O)=C1O (stereo not shown) [Ex. 1-93] | 80% | 81% |  |
| CC1(C)CC(O)=C(C(=O)NCC(=O)O)C(=O)N1Cc1ccc(Cl)c(OC(F)(F)F)c1 [Ex. 1-165] | 42% | 55% |  |
| CC1(C)CC(O)=C(C(=O)NCC(=O)O)C(=O)N1Cc1ccc(OCC2CCC2)cc1 [Ex. 1-239] | 74% | 87% |  |
| O=C(O)CNC(=O)C1=C(O)C2(CCCC2)CN(Cc2ccc(-c3ccccc3)cc2)C1=O [Ex. 1-13] | 64% | 81% |  |
| O=C(O)CNC(=O)C1=C(O)CC2(CC2)N(Cc2ccc(C(F)(F)F)cc2)C1=O [Ex. 1-224] | 80% | 90% |  |
| O=C(O)CNC(=O)C1=C(O)C2(CCC2)CN(Cc2cnc(-c3ccccc3)s2)C1=O [Ex. 1-95] | 85% | 91% |  |
| O=C(O)CNC(=O)C1=C(O)C2(CCC2)CN(Cc2ccc(C(F)(F)F)cc2)C1=O [Ex. 1-83] | 54% | 73% |  |
| CC1(C)CC(O)=C(C(=O)NCC(=O)O)C(=O)N1Cc1ccc(OCCCC(F)(F)F)c(F)c1 [Ex. 1-201] | 67% | 73% |  |

| Compound | inhibition at 1 µM (human PHD2 [1]) | inhibition at 1 µM (human PHD2 [2]) | IC50 (human PHD2 [2]) |
| --- | --- | --- | --- |
| O=C(O)CNC(=O)C1=C(O)CCN(Cc2ccc(OCc3ccc(Cl)cc3)cc2)C1=O [Ex. 1-242] | 100% | 101% |  |
| O=C(O)CNC(=O)C1=C(O)CCN(Cc2ccc(Sc3ccc(Cl)cc3)nc2)C1=O [Ex. 1-261] | 99% | 97% |  |
| CC(c1ccc(-c2ccccc2)cc1)N1CCC(O)=C(C(=O)NCC(=O)O)C1=O (stereo not shown) [Ex. 1-230] | 96% | 95% |  |
| CC1CN(CC2CCC(c3ccccc3)CC2)C(=O)C(C(=O)NCC(=O)O)=C1O (stereo not shown) [Ex. 1-107] | 67% | 90% |  |
| CC(C)C1CN(Cc2ccc(C(F)(F)F)cc2)C(=O)C(C(=O)NCC(=O)O)=C1O (stereo not shown) [Ex. 1-197] | 66% | 78% |  |
| CC1(C)CC(O)=C(C(=O)NCC(=O)O)C(=O)N1Cc1cnc(-c2ccccc2)s1 [Ex. 1-96] | 82% | 86% |  |
| Cc1ccc(Oc2ccc(CN3CCC(O)=C(C(=O)NCC(=O)O)C3=O)cc2)cn1 [Ex. 1-273] | 99% | 92% | 112 nM |
| Cc1ccc(Oc2ccc(CN3CC4(CC4)C(O)=C(C(=O)NCC(=O)O)C3=O)cn2)cc1 [Ex. 1-277] | 108% | 97% |  |
| O=C(O)CNC(=O)C1=C(O)CC2(CCC2)N(Cc2cnc(-c3ccccc3)s2)C1=O [Ex. 1-131] | 93% | 96% |  |
| O=C(O)CNC(=O)C1=C(O)CCN(Cc2ccccc2-c2ccccc2)C1=O [Ex. 1-25] | 72% | 76% |  |
| CCCOc1ccc(CN2C(=O)C(C(=O)NCC(=O)O)=C(O)CC2(C)C)cc1 [Ex. 1-227] | 76% | 75% |  |
| O=C(O)CNC(=O)C1=C(O)C2(CCC2)CN(CC2CCC(c3ccccc3)CC2)C1=O (stereo not shown) [Ex. 1-114] | 36% | 83% |  |
| O=C(O)CNC(=O)C1=C(O)CCN(Cc2ccc(Oc3ccc(C(F)(F)F)cn3)cc2)C1=O [Ex. 1-298] | 84% | 94% | 79 nM |
| Cc1ccc(CN2C(=O)C(C(=O)NCC(=O)O)=C(O)CC2(C)C)cc1F [Ex. 1-184] | 59% | 60% |  |
| O=C(O)CNC(=O)C1=C(O)CCN(CC2CCC(c3ccccc3)CC2)C1=O (stereo not shown) [Ex. 1-26] | 90% |  |  |
| O=C(O)CNC(=O)C1=C(O)CC2(CCN(C(=O)c3ccccc3)CC2)N(Cc2ccccc2)C1=O [Ex. 7-3, N-[(9-Benzoyl-1-benzyl-4-hydroxy-2-oxo-1,9-diazaspiro[5.5]undec-3-en-3-yl)carbonyl]glycine] |  | 65% |  |
| COc1cccnc1-c1ccc(CN2CCC(O)=C(C(=O)NCC(=O)O)C2=O)cc1 [Ex. 1-425] |  | 90% |  |
| Cc1ccc(COc2ccc(CN3CCC(O)=C(C(=O)NCC(=O)O)C3=O)cn2)cc1 [Ex. 1-418] |  | 98% |  |
| O=C(O)CNC(=O)C1=C(O)CCN(C[C@H]2CC[C@H](Oc3ccc(C4CC4)cn3)CC2)C1=O [Ex. 1-446] |  | 94% |  |
| O=C(O)CNC(=O)C1=C(O)CC2(CNC2)N(Cc2ccc(-c3ccccc3)cc2)C1=O [Ex. 1-313] |  | 96% |  |
| COc1cc(-c2ccc(CN3CCC(O)=C(C(=O)NCC(=O)O)C3=O)cc2)ccn1 [Ex. 2-41] |  | 93% |  |
| CC1(C)C(O)=C(C(=O)NCC(=O)O)C(=O)N1Cc1ccc(OCC2CC2)cc1 [Ex. 6-9] |  | 85% |  |
| O=C(O)CNC(=O)C1=C(O)CCN(CC2CC(c3ccc(F)cc3)C2)C1=O (stereo not shown) [Ex. 1-371] |  | 90% |  |
